# Experimental data taken from US10065990B2, “Cyclic peptide compound, and preparation method, pharmaceutical composition and use thereof” (HANGZHOU GUANYU BIO-MEDICAL CO., LTD, priority 2013, dated 2018).
# Read-outs that look alike come from different tables or passages of the source.
# Legend:
# [1] = target: HDAC1 (Homo sapiens, UniProt Q13547); test: HDAC biochemical activity measurement (fluorescent substrate deacetylation);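 note: fluorogenic acetyl-lysine substrate (20 µM) deacetylated by HDAC1, then developer releases fluorophore read at 360 nm excitation and 460 nm emission, inhibitor incubated 30 min at 37 °C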
# [2] = target: T1, HDAC8 (Homo sapiens, UniProt Q9BY41); test: as above; settings: 37° C. 30 minutes
# T1 sequence (Q9BY41 1-377): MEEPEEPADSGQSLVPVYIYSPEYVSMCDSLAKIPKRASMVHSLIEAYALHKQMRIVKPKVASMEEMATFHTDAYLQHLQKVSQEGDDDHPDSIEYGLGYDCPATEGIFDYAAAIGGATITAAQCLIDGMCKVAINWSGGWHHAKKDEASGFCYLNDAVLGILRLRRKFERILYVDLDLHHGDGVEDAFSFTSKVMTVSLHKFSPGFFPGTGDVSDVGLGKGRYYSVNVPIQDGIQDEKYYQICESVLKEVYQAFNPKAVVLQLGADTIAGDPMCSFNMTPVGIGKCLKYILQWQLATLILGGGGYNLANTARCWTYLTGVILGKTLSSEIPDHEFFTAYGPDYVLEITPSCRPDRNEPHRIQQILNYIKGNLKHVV
# Protocol: (§2) The chemical activity of the compound is determined according to the degree of deacetylation inhibition of the HDAC enzyme. This experiment measured the degree of deacetylation related to tumor proliferation and metastasis of HDAC1, HDAC2, HDAC3, HDAC8, HDAC11 five subtypes HDAC enzymes. After the substrate containing an acetylated lysine side chain and HDAC enzyme are labeled with a fluorescent label, the fluorescent substrate is de acetyl. The fluorescent labeled substrate is cleaved by the enzyme, and the fluorescent substance is released, which generates 460 nm emission light under the excitation of 360 nm light.
# (§3) HDAC substrate was diluted with reaction buffer to 200M (reaction concentration of 20M), the HDAC enzyme was diluted to the appropriate concentration, then added different concentrations of the test compounds and acted at 37° C. 30 minutes, and then added the same volume of 2-times concentration substrate developing solution (developer), incubated at room temperature for 15 minutes.
# [3] = test system: A549 (human lung cancer cells); test: MTT cancer cell growth inhibition; assay type: cell-based; settings: Homo sapiens, A549, 72 h, MTT, 72 hours incubation; read-out: GI50 A54
# How it was run: (§1)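 Absorbance at 570 nm of DMSO-dissolved formazan, formed during a 4 h MTT incubation, served as the viability measure. Cells had been exposed 72 h to drug at 10^−5–10^−10 M final; GI50 was calculated from these readings.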
# [4] = test system: BGC-823 (human gastric cancer cells); test: MTT cancer cell growth inhibition; assay type: cell-based; settings: Homo sapiens, BGC-823, 72 h, MTT
# How it was run: as §1
# [5] = test system: Bel-7402 (human hepatoma cells); test: MTT cancer cell growth inhibition; assay type: cell-based; settings: Homo sapiens, Bel-7402, 72 h, MTT, 72 hours incubation, Bel-7402 cells; read-out: GI50 Bel-7402
# How it was run: as §1
# [6] = test system: DU145 (human prostate cancer cells); test: MTT cancer cell growth inhibition; assay type: cell-based; settings: Homo sapiens, DU-145, 72 h, MTT
# How it was run: as §1
# [7] = test system: Huh-7 (human hepatoma cells); test: MTT cancer cell growth inhibition; assay type: cell-based; settings: Homo sapiens, Huh-7, 72 h, MTT, 72 hours incubation, Huh-7 cells; read-out: GI50 Huh-7
# How it was run: as §1
# [8] = test system: MCF-7 (human breast cancer cells); test: MTT cancer cell growth inhibition; assay type: cell-based; settings: Homo sapiens, MCF7, 72 h
# How it was run: as §1
# [9] = test system: MOLT-4 (human acute lymphoblastic leukemia cells); test: MTT cancer cell growth inhibition; assay type: cell-based; settings: Homo sapiens, MOLT-4, 72 h, MTT, 72 hours incubation; read-out: GI50 Mol
# How it was run: as §1
# [10] = test system: PANC-1 (Pac-1, human pancreatic cancer cells); test: MTT cancer cell growth inhibition; assay type: cell-based; settings: MTT
# How it was run: as §1
# [11] = test system: U937 (human leukemia cells); test: MTT cancer cell growth inhibition; assay type: cell-based; settings: Homo sapiens, U-937, 72 h, MTT
# How it was run: as §1
# [12] = test system: lncap (prostate cancer cells); test: MTT cancer cell growth inhibition; assay type: cell-based; settings: Homo sapiens, LNCaP, 72 h, MTT
# How it was run: as §1
# [13] = target: HDAC3 (Homo sapiens, UniProt O15379); test: HDAC biochemical activity measurement (fluorescent substrate deacetylation);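 note: fluorogenic acetyl-lysine substrate (20 µM) deacetylated by HDAC3, then developer added for 15 min at room temperature, release of fluorophore read at excitation 360 nm, emission 460 nm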
# Protocol: as §2, §3
# [14] = HDAC1, 37° C. 30 minutes, read-out: IC50 HDAC1
# [15] = Table 3, column C, read-out: IC50 HDAC1, C (six-membered ring with substituents)
# [16] = 72 hours incubation, read-out: GI50 BG
# [17] = 72 hours incubation, read-out: GI50 Du1
# [18] = 72 hours incubation, read-out: GI50 MCF
# [19] = Homo sapiens, PANC-1, 72 h, 72 hours incubation, read-out: GI50 PAN
# [20] = 72 hours incubation, read-out: GI50 U93
# [21] = 72 hours incubation, read-out: GI50 lnca
# [22] = read-out: IC50 HDAC3, HDAC3, 37° C. 30 minutes
# [23] = Table 3, read-out: IC50 HDAC1, D (non-substituent)
# Sequence of HDAC1 (Q13547 whole entry, species assumed): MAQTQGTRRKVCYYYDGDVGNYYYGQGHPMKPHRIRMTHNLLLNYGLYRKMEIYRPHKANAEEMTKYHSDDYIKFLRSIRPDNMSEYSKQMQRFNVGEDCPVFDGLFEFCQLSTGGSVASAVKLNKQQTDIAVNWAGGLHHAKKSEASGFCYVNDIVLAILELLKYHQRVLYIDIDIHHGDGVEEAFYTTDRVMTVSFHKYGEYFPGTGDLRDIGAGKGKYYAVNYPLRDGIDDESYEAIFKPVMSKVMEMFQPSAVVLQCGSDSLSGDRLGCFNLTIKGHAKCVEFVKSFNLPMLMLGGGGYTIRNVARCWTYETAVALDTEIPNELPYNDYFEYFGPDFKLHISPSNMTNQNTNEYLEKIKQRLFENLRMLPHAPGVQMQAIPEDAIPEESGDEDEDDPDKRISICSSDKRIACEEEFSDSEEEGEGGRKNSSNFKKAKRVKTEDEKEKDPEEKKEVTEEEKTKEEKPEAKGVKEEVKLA
# Sequence of HDAC3 (O15379 whole entry, species assumed): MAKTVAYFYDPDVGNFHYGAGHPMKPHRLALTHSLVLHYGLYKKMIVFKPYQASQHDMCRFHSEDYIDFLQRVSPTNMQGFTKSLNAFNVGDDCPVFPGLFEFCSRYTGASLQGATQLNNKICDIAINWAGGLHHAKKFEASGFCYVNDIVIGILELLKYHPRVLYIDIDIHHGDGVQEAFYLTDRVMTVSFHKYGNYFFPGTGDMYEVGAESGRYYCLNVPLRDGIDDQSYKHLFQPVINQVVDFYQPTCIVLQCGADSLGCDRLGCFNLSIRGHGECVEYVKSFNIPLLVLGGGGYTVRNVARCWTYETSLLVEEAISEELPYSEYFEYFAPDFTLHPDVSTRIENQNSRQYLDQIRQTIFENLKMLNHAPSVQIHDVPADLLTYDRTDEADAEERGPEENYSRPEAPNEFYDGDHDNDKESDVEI
# Sequence of HDAC3 (Q9Y618 395-489 partner limits assumed, species assumed): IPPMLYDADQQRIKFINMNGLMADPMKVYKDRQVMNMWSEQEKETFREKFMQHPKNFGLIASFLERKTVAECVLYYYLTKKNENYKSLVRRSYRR
Structure (SMILES),"IC50 [1, 14] [nM]",IC50 [2] [nM],GI50 [3] [nM],"GI50 [4, 16] [nM]",GI50 [5] [nM],"GI50 [6, 17] [nM]",GI50 [7] [nM],"GI50 [8, 18] [nM]",GI50 [9] [nM],"GI50 [10, 19] [nM]","GI50 [11, 20] [nM]","GI50 [12, 21] [nM]","IC50 [13, 22] [nM]",IC50 [13] [nM],"IC50 [1, 23] [nM]",other results
C/C=C1\NC(=O)c2cc(F)cc(n2)CNC(=O)C[C@@H](/C=C/CCSC(C)=O)OC(=O)[C@H](CCCCNC(=O)OCC2c3ccccc3-c3ccccc32)NC1=O [Compound 76],51,28,50,30,72,10,26,30,20,70,30,20,42,,,"IC50 [1, 15]: 51 nM"
C/C=C1\NC(=O)c2ccc(F)c(n2)CNC(=O)C[C@@H](/C=C/CCSC(=O)CCCCCCC)OC(=O)[C@H](C)NC1=O [Example 62],46,37,40,60,83,10,31,60,30,80,20,30,,37,,
C/C=C1\NC(=O)c2cccc(n2)CNC(=O)C[C@@H](/C=C/CCSC(=O)CCCC)OC(=O)[C@H](C(C)C)NC1=O [Compound 4],183,161,50,60,92,,86,40,,60,,,152,,183,
C/C=C1\NC(=O)c2cccc(n2)CNC(=O)C[C@@H](/C=C/CCSC(C)=O)OC(=O)[C@H](CC)NC1=O [Compound 10],92,50,60,90,95,,51,60,,80,,,,41,92,
C/C=C1\NC(=O)c2cccc(n2)CNC(=O)C[C@@H](/C=C/CCSC=O)OC(=O)[C@H](C(C)C)NC1=O [Compound 8],153,41,80,90,94,,61,80,,80,,,,51,153,
C/C=C1\NC(=O)c2ccc(F)c(n2)CNC(=O)C[C@@H](/C=C/CCSC(=O)CC)OC(=O)[C@H](C(C)C)NC1=O [Example 47],71,,40,60,43,30,24,50,20,40,20,20,,39,,
C/C=C1\NC(=O)c2cccc(n2)CCNC(=O)C[C@@H](/C=C/CCS)OC(=O)[C@H](C(C)C)NC1=O [Compound 146],73,43,30,,35,50,65,50,80,,30,40,,28,,
C/C=C1\NC(=O)c2cccc(n2)CNC(=O)C[C@@H](/C=C/CCSC(C)=O)OC(=O)[C@H](C)NC1=O [Compound 12],81,38,70,90,72,,86,60,,80,,,52,,81,
C/C=C1\NC(=O)c2cc(F)cc(n2)CNC(=O)C[C@@H](/C=C/CCSC(=O)CCCCCCC)OC(=O)[C@H](Cc2ccccc2)NC1=O [Compound 70],33,34,40,50,,50,36,30,30,,60,30,24,,,"IC50 [1, 15]: 33 nM"
C/C=C1\NC(=O)c2cccc(n2)CNC(=O)C[C@@H](/C=C/CCSC(=O)CCCCCCC)OC(=O)[C@H](C(C)C)NC1=O [Compound 1],41,30,10,60,29,,33,30,,20,,,35,,41,"IC50 ([1]; Table 2, read-out: IC50 HDAC1, a (compounds of the present invention)): < 50 nM; GI50 ([4]; 72 hours, present invention, read-out: GI50 BGC823, a): 60 nM; GI50 ([6]; 72 hours, present invention, read-out: GI50 Du145, a): 4 nM; GI50 ([8]; 72 hours, present invention, read-out: GI50 MCF7, a): 30 nM; GI50 ([10]; 72 hours, present invention, read-out: GI50 PANC-1, a): 320 nM; GI50 ([11]; 72 hours, present invention, read-out: GI50 U937, a): 5 nM; GI50 ([12]; 72 hours, present invention, read-out: GI50 lncap, a): 9 nM"
C/C=C1\NC(=O)c2cccc(n2)CNC(=O)C[C@@H](/C=C/CCSC(=O)CC)OC(=O)[C@H](C(C)C)NC1=O [Compound 6],75,63,60,70,86,,58,60,,60,,,61,,75,
C=C1NC(=O)c2cccc(n2)CNC(=O)C[C@@H](/C=C/CCSC(C)=O)OC(=O)[C@H](C(C)C)NC1=O [Compound 19],179,69,90,90,97,,92,80,1900,600,,580,39,,179,
C/C=C1\NC(=O)c2nccc(n2)CNC(=O)C[C@@H](/C=C/CCSC(C)=O)OC(=O)[C@H](C)NC1=O [Example 24],74,63,100,220,95,20,51,50,490,220,,30,,43,,
C/C=C1\NC(=O)c2cc(F)cc(n2)CNC(=O)C[C@@H](/C=C/CCSC(=O)CCC)OC(=O)[C@H](C(C)C)NC1=O [Compound 43],27,43,50,30,73,50,36,50,30,,60,30,46,,,"IC50 [1, 15]: 27 nM"
C/C=C1\NC(=O)c2cccc(n2)CNC(=O)C[C@@H](/C=C/CCSC(=O)CCC)OC(=O)[C@H](C(C)C)NC1=O [Compound 5],74,67,50,60,93,,72,40,,60,,,49,,74,
